Assay results: US20220079984A1, “METHOD FOR TREATING CANCER WITH KIDNEY PROTECTION” (Renibus Therapeutics, Inc., priority 2020, published 2022)

Legend:
mice = experiment: SnPP preconditioning against cisplatin nephrotoxicity; format: in vivo; set-up: P creatinine: unit not given here
CD-1 mice = experiment: RBT-3 preconditioning: cisplatin nephrotoxicity and renal cisplatin uptake; format: in vivo; details: cisplatin 15 mg/Kg IP ± 1 mg RBT-3 IV 18 hrs before, 3 days post cisplatin, mean ± SEM
Method: 4. […] Mice were injected with 1 mg RBT-3 or saline vehicle via the tail vein (n, 5 each). […] Free food and water were provided throughout. […] Plasma levels of the proximal tubule enzyme, N-acetyl glucosamidase (“NAG”), were also assessed (BioAssay Systems #DNAG-100; Hayward, Calif.). […] Statistics. Each sample was assayed in duplicate with the average being used for data presentation and analysis. The human hepcidin data are presented as means±1 SD. Baseline plasma hepcidin values for the HV and CKD groups were compared by unpaired Student's t test. Comparisons of hepcidin levels over time were analyzed by ANOVA for repeated measures with 95% confidence intervals being presented. Baseline demographic data were compared by unpaired Student's t test. Mouse data are given as means±1 SEM.

[1] = SnPP 1 umole or vehicle day zero, cisplatin 15 mg/kg day 1, 3 days post cisplatin

Row | SMILES | protection in cisplatin treated mice, compared to cisplatin alone (mice; P<0.01) | HO-1 mRNA (mice; 3 days post cisplatin) | IL-6 mRNA (mice; 3 days post cisplatin) | MCP-1 mRNA (mice; 3 days post cisplatin) | NGAL mRNA (mice; 3 days post cisplatin) | P21 mRNAs (mice; 3 days post cisplatin) | BUN (mice; [1]) | P creatinine (mice; [1]) | Tissue LDH (mice; renal cortical, 3 days post cisplatin) | BUN (CD-1 mice) [mg/dL] | Creat (CD-1 mice) [mg/dL] | Plasma NAG (CD-1 mice) [activity units/liter]
1 | C=Cc1c2[n-]c(c1C)/C=c1\[n-]/c(c(C)c1C=C)=C\c1[n-]c(c(CCC(=O)O)c1C)/C=c1\[n-]c(c(C)c1CCC(=O)O)=C2.[Sn+4] [SnPP, tin protoporphyrin] | statistically significant protection | – | – | – | – | – | – | – | – | – | – | –
2 | N.N.[Cl][Pt][Cl] [Cisplatin, cis-diammine dichloroplatinum II] | – | 1.16 ± 0.28 | 2.51 ± 1.65 | 10.9 ± 5.7 | 16.9 ± 12 | 4.23 ± 0.61 | 103 ± 22 | 0.94 ± 0.41 | 754 ± 54 | 105 ± 11 | 0.7 ± 0.1 | 19.5 ± 0.8
